The IC50 is the concentration needed to halve the response being measured.

The results in this text go back to patent publication US20240050449A1, “Use of Acetyltanshinone IIA in Preparation of Medicament for Treating Lung Cancer and Medicament for Treating Lung Cancer” (UNIVERSITY OF MACAU, priority 2022, published 2024).

“Also recorded” adds a separate entry of the source.

The test system of experiment [1] is H1650 cells. As to the kind of experiment: Spheroid formation experiment, H1650 cells.
For experiment [2], the system named is A549 cell-derived xenograft tumors. As to the kind of experiment: Mouse xenograft study. In kind it is in vivo, nude mice. To be noted: 25 mg/kg intraperitoneally every 3 days, day 31. The method, then:
Cell line xenograft experiments were performed in 6-week-old female nude mice, 4×10^6 A549 cells were mixed 1:1 with matrigel-basement membrane matrix (Corning) and injected subcutaneously into nude mice. Tumors were allowed to grow to around […] and mice were randomly selected to receive treatment with ATA (25 mg/kg) or Erlotinib (25 mg/kg) intraperitoneally every 3 days for 31 days. ATA was formulated with 25% ethanol, 60% PEG300 (Sigma-Aldrich), and 15% Tween 80 (Sigma-Aldrich). Erlotinib was formulated in 5% DMSO, 30% PEG300, 5% Tween 80 and 60% H2O. Mouse body weight and tumor volume were measured every 3 days by a scale and caliper. Tumor volume (mm^3) was calculated using the formula. π/6×length (mm)×[width (mm)]^2. At least 6 mice in the control and treatment groups were evaluated during the study. All mice were sacrificed after 31 days of drug treatment, tumors were collected, and tumor weights were recorded. All animal studies were conducted in accordance with the requirements of the Animal Research Ethics Committee of Macao University and in compliance with all relevant ethical requirements.
To determine if ATA could also produce the same effect in vivo, this example injected A549 cells subcutaneously into nude mice to form tumor xenografts. Mice were randomly assigned to three groups. When the size of each tumor increased to a volume of approximately 100 mm^3, mice were injected intraperitoneally with vehicle control, ATA (25 mg/kg), or Erlotinib (25 mg/kg) every 3 days for 31 days. The tumor size and body weight of each mouse were measured every 3 days until the end of the animal experiment on day 31.

The next experiment deals with A549 cells. Description: Transwell Matrigel invasion assay. The experiment is classed as cell-based. The protocol:
Cell migration and invasion assays were performed in a transwell chamber (Corning, #3422) with a pore size of 8 μm. Cells were treated with different concentrations of ATA and Erlotinib for 48 h, then harvested and resuspended in a serum-free medium. Cells (1×10^4) were added to the upper side of the transwell chamber and fresh medium containing 10% FBS was added to the lower side. Cells were allowed to migrate from the upper side to the lower side of the chamber at 37° C. for 24 h. Membranes from the cell chamber were fixed with 4% paraformaldehyde for 20 min. The cells remaining on the upper side of the membrane were gently removed with a cotton swab and stained with 1% crystal violet for 20 min to stain the cells migrating to the other side of the transwell chamber. The membrane was then cut and fixed on a glass slide. The migrated cells on each slide were imaged with a Leica M165-FC microscope. For the transwell invasion assay, a Matrigel solution (Corning, #356230) was diluted to one-thirtieth with serum-free medium and applied to the upper side of the precoated chamber for 2 h, after the Matrigel had solidified, the cells were added to the upper side of the transwell chamber. The following procedure is identical to the migration assay. Migrated and invaded cells were quantified using ImageJ software.

The subject of experiment [3] is H1975 cells. Description: Spheroid formation experiment, H1975 cells. The experiment is classed as cell-based. From the text:
The density of H1975 was 500 cells per well and the density of H1650 was 1000 cells per well in an ultra-low adhesion round bottom 96 well plate (Corning, #7007).

Experiment [4] deals with all four drug-resistant cell lines (A549, H358, H1975, H1650). As to the kind of experiment: Colony formation, all four drug-resistant cell lines. Conditions: 1 μM, 10 days. In kind it is cell-based. The method, then:
(§1) Cells were seeded at a density of 1×10^3 per well in 6-well plates and cultured for 24 h. The cells were treated with medicament or DMSO for 10 days, after which the cells were washed once with 1×PBS, fixed with 4% paraformaldehyde for 20 min, and stained with 0.1% crystal violet for 15 min. The stained cells in each well were imaged and the number of colonies in each well was quantified using ImageJ software.

Experiment [5] relates to protein levels in A549-derived xenograft tumor tissue. Description: Western blot of A549-derived xenograft tumor tissue. In kind it is in vivo, nude mice. Conditions: after ATA treatment, 25 mg/kg. (Immunoblotting shows a protein as a band on a membrane.)
Description: Cells were washed once with PBS and frozen in RIPA lysis buffer containing protease and phosphatase inhibitors (Sigma-Aldrich) for 30 min. After sonication and centrifugation, the total protein concentration was determined by protein assay using Bio-Rad concentrated dye reagent (Bio-Rad). Equal amounts of protein (25-50 mg) from each sample were separated by SDS-PAGE and electrotransferred to nitrocellulose membranes (GE Healthcare). Detection was performed on the membrane with a 1:1000 dilution of specific primary antibody followed by incubation with a 1:2000 dilution of the HRP conjugated secondary antibody. Finally, immunoreactivity is detected with a chemiluminescent substrate (Clarity Western ECL substrate; Bio-Rad). EGFR (#4267S), MET (#8198S), p-Akt (#9271L), akt (#9272S), p-mTOR (#5536S), mTOR (#2983S), p-p70S6K (#9234S), p70S6K (#2708S), p-S6RP (#4857S), S6RP (#2217S), p-4E-BP1 (#9455S) antibodies. 4E-BP1 (#9644S), p53 (#2527S), p21 waf1/Cip1 (#2947S), survivin (#2808S), cyclin B1 (#12231S), cyclin D3 (#2936S) and GAPDH (#2118S) were purchased from Cell Signaling Technology. Aurora A (#ab13824) and PLK1 (#ab189139) antibodies were from Abcam.
EGFR, MET, p-p70S6K, p70S6K, p-S6RP, S6RP, p21, AURKA, PLK1, and survivin protein levels were detected by Western blot analysis. Immunoblot samples were from two independent tumors per group.
The subject of experiment [6] is H1650 cells. As to the kind of experiment: MTT cell viability assay, H1650 cells. In kind it is cell-based. The protocol: (§2) Cells were seeded at a density of 3×10^3 per well in 96-well plates, allowed to attach overnight, and treated with various concentrations of agent. After 72 h of treatment, 10 μL of MTT solution (5 mg/mL) was added to each well and cultured in the plate for 4 h. The crystallized formazan was dissolved in 100 μL of 10% (w/v) SDS and 0.01 mol/L HCl solution for 24 h, and then the value was read by spectrophotometry at 595 nm using a microplate reader.
Background: Tetrazolium assays rely on reduction of a dye to a coloured formazan, in cell work by metabolically active cells.

In another experiment the test system is H358 cells. As to the kind of experiment: Colony formation (cloning experiment), H358 cells. In kind it is cell-based. Conditions: 10 days. The method, then:
as §1

The subject of experiment [7] is H1975 cells. As to the kind of experiment: MTT cell viability assay, H1975 cells. In kind it is cell-based. The method, then:
as §2

For `CC(=O)Oc1c(OC(C)=O)c2c(C)coc2c2ccc3c(c12)CCCC3(C)C` [ATA, acetyltanshinone IIA], the “spheroid growth / sphere size” value is on record as “completely inhibited” with H1650 cells [1] (2 μM, 0 to 8 days) and “completely inhibited” in the experiment with H1975 cells [3] (2 μM, 0 to 8 days). Besides, the spheroid formation entry in the experiment with H1650 cells [1] (both 1 and 2 μM) is recorded as “strongly inhibited”; with H1975 cells [3] (both 1 and 2 μM), “strongly inhibited”. The “reduction of tumor size compared to the control group” value in experiment [2] is 72.1%. In [2], the “reduction of tumor weight” value is 77.4%. The “effect on cell invasion” value in the experiment on A549 cells (0.5 μM) is “significant inhibitory effect”. Further, the “reduction of invasion ability” value in the experiment on A549 cells (1 μM) is 88%. In addition, the “inhibition of colony formation compared with Erlotinib and Osimertinib” value in [4] was “much more effectively than Erlotinib and Osimertinib”. Besides, in experiment [5], the “increase of p21 protein levels in xenograft tumor tissue” value is “more than 2 fold”. In addition, in experiment [5], the “protein levels of EGFR, MET, p-p70S6K, p70S6K, p-S6RP, AURKA, PLK1 and survivin in xenograft tumor tissue” value is “greatly reduced”. Also, the “IC50 ratio of Erlotinib/ATA” value is on record as 17.3 with H1650 cells [6] and 6 with H1975 cells [7]. The “growth inhibition compared with other agents” value with H1650 cells [6] (ATA 2 μM, 72 h, MTT) was “significantly higher than all three inhibitors; also recorded: greater growth inhibition than combination therapy with Erlotinib and MLN8237”. The IC50 turned out to be 1280 ± 290 nM in the experiment with H1650 cells [6] (MTT, 72 h) and 1760 ± 20 nM in the experiment with H1975 cells [7] (MTT, 72 h). In addition, the “inhibition of colony formation” value in the experiment on H358 cells (0.125 μM) is given as “almost completely inhibited”. Further, the “colony formation inhibition compared with Afatinib” value in the experiment on H358 cells (1 μM) is reported as “significantly higher colony formation inhibition than Afatinib”.
